In patent US20070054258A1, “Method of removing mucus and cell treatment solution and preservative solution used therefor” (SYSMEX CORPORATION, priority 2003, published 2007):

How the values were obtained:
Type in all cases: cell-based
[1] = tested on: cell populations of clinical specimen; assay: Effect of the cell treatment solution on cell morphology; conditions: 5 minutes compared with 1 minute
Experimental: The cell treatment solutions containing L-cysteine at concentrations of 5 mass %, 10 mass % and 20 mass % were used to treat cell populations of clinical specimen for 1 minute or 5 minutes in the same manner of the above, and the cells were observed. The results of each sample treated with the solutions containing 5 mass %, 10 mass % and 20 mass % L-cysteine for 1 minute and 5 minutes were shown in FIG. 9 to FIG. 14.

[2] = tested on: cell populations in a clinical specimen derived from uterine cervix; assay: Effect of removing mucus in clinical specimens of uterine cervix for cytodiagnosis (Giemsa stain, light microscope)
Experimental: Cell populations in a clinical specimen derived from uterine cervix which had been stored in 30 to 60 mass % methanol-based, buffered preservative solution (PreservCyt® manufactured by Cytyc Corporation) was transferred to a 1.5 ml centrifuge tube (about 1×10^5 cells/sample).
The solution was centrifuged (10000 rpm; 1 minute; 4° C.) to separate cells, and the supernatant was removed.
To the cells thus collected was added 1 ml of a mixture (hereinafter referred to as PBS-T) of 0.1% Tween 20 (Sigma) and 0.01M phosphate buffer (PBS available from Sigma; pH7.4) and the cells were resuspended.
The cells were washed by another centrifugation (10000 rpm, 1 minute, 4° C.) for cell separation, removal of the supernatant and cell collection. The cells washed were resuspended in 500 μl of the preservative solution.
10 mass % aqueous solution of N-acetyl-L-cysteine (hereinafter referred to as AcCys) was prepared for a cell treatment solution. This cell treatment solution was added to the cell suspension obtained from the above, and samples of B to E were prepared so that the AcCys concentrations in the samples were 0.625 mass %, 1.25 mass % or 5 mass %.
The solution obtained after the reaction was finished was then centrifuged (10000 rpm; 1 minute; 4° C.) to separate cells, and the supernatant was removed and cells were collected.
The cells were washed by resuspension in 1 ml of PBS-T, another centrifugation (10000 rpm; 1 minute, 4° C.) for cell separation, and removal of the supernatant. This washing procedure was repeated two times.
The cells collected were suspended in 300 μl of 100% methanol and mounted on a glass slide by using Cytospin. Then, cells on the slide were stained with 5% Giemsa Stain Solution (Sysmex) for 15 minutes, washed thoroughly with PBS, and observed under a light microscope to give micrographs of FIG. 1 to 5 for each sample of A to E. […]

squamous cells = assay: Staining with fluorescent-labeled anti-NMP 179 antibody after treatment; conditions: cells treated with 5 mass % AcCys (FIG. 8)
Experimental: Squamous cells which were not treated with AcCys and squamous cells which were treated with 5 mass % AcCys were stained with a fluorescent-labeled anti-NMP 179 antibody which reacts with cells derived from uterine cervix except for normal uterine cervix squamous cells, and observed under a microscope to give each result of fluorescent image in FIG. 7 and FIG. 8.

| SMILES | effect on cell morphology ([1]; 5 mass % L-cysteine) | effect on cell morphology ([1]; 10 mass % L-cysteine) | effect on cell morphology ([1]; 20 mass % L-cysteine) | mucus part (black clumps) after treatment ([2]; AcCys 5 mass % (Sample E), room temperature, 1 minute) | mucus part (black clumps) after treatment ([2]; AcCys 5 mass % (Sample F), reaction time 24 hours) | mucus part (black clumps) after treatment ([2]; AcCys under 5 mass % (Samples B to D), room temperature, 1 minute) | specificity of fluorescent anti-NMP179 antibody staining (squamous cells) |
| --- | --- | --- | --- | --- | --- | --- | --- |
| N[C@@H](CS)C(=O)O [L-cysteine] | did not affect the cell morphology | did not affect the cell morphology | did not affect the cell morphology | – | – | – | – |
| CC(=O)N[C@@H](CS)C(=O)O [AcCys, N-acetyl-L-cysteine] | – | – | – | black clumps showing mucus part were disappeared | black clumps showing mucus part were disappeared | there remained black clumps which showed mucus part | specific staining |
